Laboratory results from US5925618A, “Peptides useful as somatostatin antagonists” (American Cyanamid Company, priority 1998, dated 1999).
Square brackets hold non-standard residues; d marks the D form. Peptide text beside a SMILES is read from it.

Columns and labels:
[1] = molecular target: T1, S. cerevisiae (yeast) cells expressing SRIF receptors (Rattus norvegicus, UniProt P30680); experiment: Yeast bioassay for SRIF antagonist activity (LY364 cells growing in response to SRIF, zone of growth inhibition); type: cell-based; conditions: Sample type 4th iteration; 10 μL of 5 mg/mL on disk, SRIF 10 nM, read after 3 days
T1 construct: expressed in transfected cells; host or cells: S. cerevisiae strain LY364
T1 sequence (P30680 whole entry): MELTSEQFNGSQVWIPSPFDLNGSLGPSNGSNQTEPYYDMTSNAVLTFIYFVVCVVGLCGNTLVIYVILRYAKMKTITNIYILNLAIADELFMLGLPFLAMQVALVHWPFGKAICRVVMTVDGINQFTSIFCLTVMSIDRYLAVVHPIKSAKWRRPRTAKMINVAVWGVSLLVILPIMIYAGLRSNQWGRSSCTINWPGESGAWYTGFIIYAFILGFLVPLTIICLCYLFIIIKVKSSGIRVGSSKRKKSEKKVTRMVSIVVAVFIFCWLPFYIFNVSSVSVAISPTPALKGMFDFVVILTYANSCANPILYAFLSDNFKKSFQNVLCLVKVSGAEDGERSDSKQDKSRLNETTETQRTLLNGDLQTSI
Description: SRIF antagonist assay using S. cerevisiae (yeast) cells expressing SRIF receptors that grow in response to SRIF
Agar plates containing LY364 cells that are growing in the presence of added SRIF are the basis for a sensitive SRIF antagonist assay, whereby zones of growth inhibition result from the addition of SRIF antagonists to the surface of the agar plate (see L. A. Price, et al., Molecular and Cellular Biology, 15, 6188-6195, 1995, incorporated herein by reference).
In this assay, LY364 cells are grown overnight in 2 mL of synthetic complete(SC) medium (3.4 g/L YNB without amino acids and ammonium sulfate, 10 g/L ammonium sulfate and 1.4 g/L CSM-ura-trp) with glucose (2%) and without uracil and tryptophan. These cells are washed and cultured for 4 to 8 hours in 5 mL of SC medium with lactate (3%) and without uracil and tryptophan, and finally grown overnight in 5 mL of SC medium with galactose (2%) and without uracil and tryptophan. Molten (50° C.) SC agar medium with galactose (2%) and without uracil, tryptophan and histidine is adjusted to pH 6.8 with KOH, mixed with 2×10^4 cells/mL and SRIF (S-14, 10 nM) and poured into square (20×20 cm) petri dishes. Sterile filter disks are placed on the surface of the agar, and saturated with 10 μL of water or DMSO containing 5 mg/mL test peptides. After three days, the plates display a uniform cloudy background of LY264 cells growing in response to the added SRIF. […] This zone is quantified by measuring its diameter (mm), which varies according to the potency of the SRIF antagonist. Those peptides or mixtures of peptides displaying the largest zones of inhibition are further characterized.
Values are compared among samples in the same experiment, as the degree of yeast growth varies somewhat from assay to assay. For the first five sample types, in which progressively less complex mixtures of peptides are found, this assay is the primary determining factor in choosing which samples form the basis of subsequent syntheses.
Plates are read after 3 days. Samples shown in Table I in bold type are chosen for further synthesis. In Table I, all amino acids are D-amino acids and dashes represent undefined amino acid residues.

rat SSTR2 = molecular target: T2, rat SSTR2 (Rattus norvegicus, UniProt P30680); experiment: cAMP accumulation in forskolin-stimulated GH4 C1/SSTR2 cells; type: cell-based
T2 construct: expressed in transfected cells; host or cells: GH4C1 rat pituitary tumor cells
T2 sequence (P30680 whole entry): as above
Description: A primary effect of SRIF upon mammalian cells is the reduction of cyclic adenosine 3',5'-monophosphate(cAMP) levels, via inhibition of adenylyl cyclase. This is the basis of a common assay for SRIF agonists and antagonists, whereby SRIF agonists reduce artificially stimulated cAMP levels, and SRIF antagonists reverse the effect of SRIF. The rat pituitary tumor cell line GH4 C1 predominantly expresses SSTR2, and responds to SRIF and to forskolin, a stimulator of adenylate cyclase (see C. M. Eppler, et al., J. Biol. Chem., 267, 15603-15612, 1992, incorporated herein by reference). A highly sensitive assay for SRIF agonists and antagonists results from additionally transfecting GH4 C1 cells with the cloned rat SSTR2, (see L. A. Price, et al., Molecular and Cellular Biology, 15, 6188-6195, 1995, incorporated herein by reference). This increases the response to SRIF and provides a greater dynamic range for the measurement of SRIF antagonist activity.
Stimulation of cells. GH4 C1 /SSTR2 cells, grown in DMEM with 10% bovine serum, are released from a tissue culture dish by incubation for several minutes at 37° C. with PBS containing 0.5 mM EDTA. Cells are washed in induction buffer (PBS containing 100 μM IBMX (an inhibitor of cAMP breakdown) and 2 mM CaCl2) at room temperature, and resuspended at 2×10^6 /mL in induction buffer. Into each well of a 96-well tray are added 50 μL of a 2× concentration of stimulants in induction buffer. These include (at final concentration) 1.25 μM forskolin, 100 nM SRIF or 10 nM of the SSTR2-selective agonist MK678 and test peptides at various concentrations. To initiate stimulation of the cells, 50 μL (100,000) cells are added to each well, mixed by shaking 10 seconds on a plate shaker and placed at 37° C. for 15 minutes. Stimulation is arrested and cells are lysed by adding 15 μL 0.33N HCl to each well and incubating the plate for 30 minutes at 37° C. Samples are neutralized by addition of 15 μL 0.25N NaOH/50 mM Hepes pH 7.4. Baseline cAMP levels are determined in samples with no added forskolin or SRIF, and each treatment is performed in triplicate.
cAMP assay. To measure accumulated cAMP in the samples, a radioimmunoassay is employed. The scintillation proximity assay (SPA, Amersham, Arlington Heights, Ill.) allows the rapid measurement of ^125 I cAMP bound to a specific antibody without separating bound radioligand from free radioligand. Each of the following reagents (50 μL) are added per well in a 96-well tray: supernatants from the cell stimulation; ^125 I cAMP; SPA beads conjugated to monkey anti-rabbit IgG antibodies; and rabbit anti-cAMP antibodies. For the standard curve, known amounts of cAMP (0.2-12.8 pmol) are added in place of cell supernatants. The 96-well tray is sealed, shaken at room temperature overnight and measured for bound radioligand in a MicroBeta liquid scintillation counter (Wallac, Gaithersburg, Md.). The standard curve is determined for each experiment by performing a nonlinear regression (exponential decay) analysis of cpm measured for the cAMP standards vs. their log concentrations, and test sample values are determined by using Prism software (Graphpad Software Inc., San Diego, Calif.) and are shown in Table II and FIG. 1. FIG. I illustrates the antagonist activity of Peptide 1.
The intrinsic activity of an SRIF antagonist is the percent reversal of the SSTR2, activation by SRIF or MK678, wherein 0% is defined by cAMP levels in samples treated with forskolin plus SRIF or MK678 and 100% is the cAMP level measured after treatment with forskolin alone. Therefore, increased intrinsic activity of a test compound indicates increased antagonist activity of said test compound.
FIG. […]
An inverse agonist is a compound that is not only a pure antagonist (i.e. lacking agonist activity), but also blocks the constitutive activity of an unoccupied receptor. One indication of inverse agonist activity is the ability of a SRIF antagonist to increase cAMP levels in the absence of added SRIF. […]

CC[C@@H](C)[C@@H](NC(=O)[C@@H](Cc1ccccc1)NC(=O)[C@@H](Cc1c[nH]cn1)NC(C)=O)C(=O)N[C@H](CCCNC(=N)N)C(=O)N[C@H](Cc1c[nH]c2ccccc12)C(=O)N[C@H](Cc1ccccc1)C(N)=O [Peptide 1, h-f-i-r-w-f] (Ac-[dH][dF][dI][dR][dW][dF]-NH2)
Inhibition Zone [1]: 18 mm
cAMP (rat SSTR2; Forskolin 1.25 μM + MK 678 10 nM, Peptide 1 1 μM): 1.14 pM per 4 × 10^4 cells
cAMP (rat SSTR2; Forskolin 1.25 μM + MK 678 10 nM, Peptide 1 10 μM): 2.69 pM per 4 × 10^4 cells
cAMP (rat SSTR2; Forskolin 1.25 μM + MK 678 10 nM, Peptide 1 50 μM): 3.32 pM per 4 × 10^4 cells
cAMP (rat SSTR2; Forskolin 1.25 μM, no MK 678, Peptide 1 1 μM): 2.57 pM per 4 × 10^4 cells
cAMP (rat SSTR2; Forskolin 1.25 μM, no MK 678, Peptide 1 10 μM): 3.05 pM per 4 × 10^4 cells
cAMP (rat SSTR2; Forskolin 1.25 μM, no MK 678, Peptide 1 50 μM): 3.33 pM per 4 × 10^4 cells
mode of antagonism from agonist dose response curves (rat SSTR2; S-14 or MK678 dose response with or without peptide 1): directly competing with the SRIF agonists
forskolin-stimulated cAMP levels in the absence of SRIF (inverse agonist activity) (rat SSTR2; no added SRIF): causes an increase in forskolin-stimulated cAMP levels even in the absence of SRIF
